From patent publication US20240239786A1, “COMPOSITIONS AND METHODS FOR THE TREATMENT AND PREVENTION OF CANCER” (Yale University, priority 2021, published 2024)

What was measured:
Assay type in all cases: cell-based
[1] = system: PEO4 cells; assay: Caspase 3/7 assay, PEO4; conditions: 50 μM olaparib, 24 hr
Procedure: (§1) Cells were pre-treated with 30 μM DB4 for 1 hr and then treated with various concentrations of olaparib for 72 hr. Cell survival was determined by MTS cytotoxicity assay. Data are means±SD (N=3-4). […] EOB calculation was used to quantify the synergy of the combination of DB4 and various concentrations of olaparib in PEO1 or PEO4 cells as shown in FIG. 8A. EOB>0, synergism; EOB=0, additivity; EOB<0, antagonism. […] Cells were pre-treated with 30 μM DB4-F for 1 hr and then treated with various concentrations of olaparib for 72 hr. Cell survival was determined by MTS cytotoxicity assay. Data are means±SD (N=3-4). […] EOB calculation was used to quantify the synergy of the combination of DB4-F and various concentrations of olaparib in PEO1 or PEO4 cells as shown in FIG. 8B. […] Cell survival was determined by MTS cytotoxicity assay. […] Caspase 3/7 activity was expressed as RLU per μg/μl protein. […] Caspase 3/7 activity was expressed as RLU per μg/μl protein. […] Cells were treated and caspase 3/7 activity was measured as described in FIG. 8G and FIG. 8H.
(§2) Furthermore, the effects of DB4 on olaparib-induced apoptosis at 24 hr were evaluated. […]
(§3) The assay was performed as described previously (Lin Z P et al., 2018, PLOS One, 13:e0207399). […] Total protein concentration of cell lysates was determined as described above. Caspase 3/7 activity was expressed as luminescence units (RLU) per μg/μL protein for each sample.

[2] = system: PEO1 cells; assay: Reversal of RNR inhibition by supplementing deoxyribonucleosides (MTS); conditions: addition of dA plus dG, or all dNs, 72 hr
Procedure: FIG. 2, comprising FIG. 2A through FIG. 2F, depicts representative results of follow-up assays of in silico hit compounds in PEO1 and PEO4 cells. FIG. 2A depicts representative results of cytotoxicity assays on selected 25 in silico hit compounds in PEO1 and PEO4 cells. Cells were plated for 24 hr and then treated with 50 μM compounds for 72 hr. For a positive control, cells were treated with 1 μM triapine for 72 hr. The percentage of cell survival was determined by the MTS cytotoxicity assay. […] Cells were treated with 50 μM compounds or 1 μM triapine for 24 hr. During the last hour, cells were pulse-labeled with EdU, stained with the Click-iT EdU Alexa Fluor 488 Assay Kit, counterstained with 7-AAD, and subsequently analyzed by flow cytometry. EdU-positive cells were gated to determine the percentage of the S phase cell population. […] During the last hour, cells were pulse-labeled with EdU, stained with the Click-iT EdU Alexa Fluor 488 Assay Kit, counterstained with 7-AAD, and subsequently analyzed by flow cytometry. […] The percentages of DNA synthesis in cells treated with each of 10 compounds and triapine relative to the DMSO-treated control is calculated and shown. […] Cells were extracted with 65% methanol for determination of each of dNTPs expressed as pmole/10^6 cells. […] The percentage of cell survival was determined by the MTS cytotoxicity assay. […]

[3] = system: PEO1 cells; assay: Caspase 3/7 assay, PEO1; conditions: 50 μM olaparib, 24 hr
Procedure: as §1, §2, §3

Row | Structure (SMILES) | effect on olaparib-induced caspase 3/7 activity ([1]; DB4 starting at 7.5 μM) | reversal of inhibitory effects on cell survival by dNs [2] | effect on olaparib-induced caspase 3/7 activity [3] | caspase 3/7 activity, olaparib alone [1] | caspase 3/7 activity, olaparib alone [3]
1 | C=CCn1c(SCc2cccc(Cl)c2)nnc1C1CCN(Cc2nc3ccccc3s2)CC1 [DB4, 2-[(4-{4-allyl-5-[(3-chlorobenzyl)thio]-4H-1,2,4-triazol-3-yl}-1-piperidinyl)methyl]-1,3-benzothiazole] | markedly augmented | partially reversed | failed to enhance |  | 
2 | O=C(c1cc(Cc2n[nH]c(=O)c3ccccc23)ccc1F)N1CCN(C(=O)C2CC2)CC1 [olaparib, reference compound] |  |  |  | minor increase in caspase 3/7 activity | pronounced increase in caspase 3/7 activity
3 | NC(=S)NN=Cc1ncccc1N [triapine, 3-aminopyridine-2-carboxaldehyde-thiosemicarbazone, reference compound] |  | partially reversed |  |  | 
